Data published in patent publication US11092596B2, “Material and method to screen proteasome stimulators” (Purdue Research Foundation, priority 2017, dated 2021).
Counter-ions that a name gives are not always drawn.

Legend:
[1] = target: T1, chymotrypsin-like activity of the 20S CP (Homo sapiens, UniProt P28074); assay: Kinetic assay, CT-L FRET reporter hydrolysis by purified 20S CP; assay type: biochemical; conditions: for increase in the rate of hydrolysis (CT-L FRET reporter): 9 nM 20S CP, vs basal
T1 construct: 5 μL purified 20S proteasome (90 nM in Tris-HCl) was added to the control and test wells
Protocol: (§1) Plate preparation for the kinetic assay was performed similarly for all assays. All 96-well plates contained the following in triplicate: reporter background, containing reporter only, and control wells, containing reporter and purified 20S CP. It was determined that each well will contain a total volume of 50 μL. To each well was added 40 μL of the coumarin or FRET reporters (in Tris-HCl, 50 mM, pH 7.7). To the reporter background wells was added 7.5 μL Tris-HCl and 2.5 μL of the solvent in which the compound of interest was dissolved or diluted. Similarly, to the control wells was added 2.5 μL Tris-HCl and 2.5 μL of the solvent in which the compound of interest was dissolved or diluted. To the test wells was added 2.5 μL Tris-HCl and 2.5 μL of the compound of interest at a predetermined concentration. Immediately prior to running the assay on the Synergy 4 Plate Reader, 5 μL purified 20S proteasome (90 nM in Tris-HCl) was added to the control and test wells.
(§2) The Synergy 4 Plate Reader was set to heat the plate at 37° C. and read fluorescence every 2 min over a 40 min period. The excitation and emission wavelengths were set according to the reporter. For the FRET reporter, the excitation and emission wavelengths were set to 335 nm and 493 nm, respectively, corresponding to the excitation and emission wavelengths of the Edans fluorophore. For the coumarin reporter, the excitation and emission wavelengths were set to 380 nm and 460 nm, respectively.
(§3) AM-404 was used as a positive control compound to test the dose-response screening capabilities of the CT-L FRET reporter. The following concentrations of AM-404 were tested in triplicate: 50, 25, and 12.5 μM. To each well was added 40 μL 20 μM CT-L FRET (in Tris-HCl, 50 mM, pH 7.7). To the reporter background wells was added 5 μL Tris-HCl and 5 μL 1:1 Tris-HCl:DMSO. Similarly, to the control wells was added 5 μL 1:1 Tris-HCl:DMSO. To the 50 μM AM-404 test wells was added 2.5 μL Tris-HCl and 2.5 μL 1000 μM AM-404 in DMSO. To the 25 μM AM-404 test wells was added 2.5 μL Tris-HCl and 2.5 μL 500 μM AM-404 in DMSO. To the 12.5 μM AM-404 test wells was added 2.5 μL Tris-HCl and 2.5 μL 250 μM AM-404 in DMSO. Immediately prior to running the assay on the Synergy 4 Plate Reader, 5 μL purified 20S proteasome (90 nM in Tris-HCl) was added to the control and test wells. The assay was performed using the Synergy 4 plate reader as described for the general screening kinetic assay procedure.
as §3, with “Fenofibrate was” for “AM-404 was”, “a negative” for “a positive”, “of fenofibrate” for “of AM-404”, “μM fenofibrate” for “μM AM-404”, “procedure. […]” for “procedure.”

20S CP = 20S CP (Homo sapiens, UniProt P28074); conditions: in cellulo, Suc-LLVY-AMC reporter, previously reported; read-out: EC50 as 20S CP stimulator; cited from earlier work
26S proteasome = conditions: at concentrations as low as 5 μM; cited from earlier work
[2] = tested on: T2, chymotrypsin-like FRET reporter (CT-L FRET), Lys(Y1)-Met-Ser-Gly-Phe-Ala-Ala-Thr-Ala-Glu(Y2)-Gly
T2 sequence: KMSGFAATAEG

Suc-LLVY-AMC = tested on: T3, Suc-LLVY-AMC
T3 sequence: LLVY

[3] = target: T4, trypsin-like activity of the 20S CP (Homo sapiens, UniProt Q99436); assay: Kinetic assay, Bz-VGR-AMC reporter hydrolysis by purified 20S CP; assay type: biochemical; conditions: 500 μM SDS
Protocol: as §1, with “To the test wells was added 2.5 μL Tris-HCl and 2.5 μL of the compound of interest at a predetermined concentration.” left out
The Synergy 4 Plate Reader was set to heat the plate at 37° C. and read fluorescence every 2 min over a 40 min period. […]
(§4) Stimulation of the 20S proteasome with SDS was determined using both the coumarin and FRET reporters for the chymotrypsin-like and trypsin-like activities of the 20S CP. […] Immediately prior to running the assay on the Synergy 4 Plate Reader, 5 μL purified 20S proteasome (90 nM in Tris-HCl) was added to the control and test wells. […]

[4] = target: T1, chymotrypsin-like activity of the 20S CP; assay: Kinetic assay, Suc-LLVY-AMC reporter hydrolysis by purified 20S CP; assay type: biochemical
Protocol: as §1
as §2, with “For the coumarin reporter, the excitation and emission wavelengths were set to 380 nm and 460 nm, respectively.” left out
Sodium dodecyl sulfate (SDS) was used to test the effect stimulating the 20S proteasome has on the hydrolysis of the FRET reporters. The appropriate concentration of SDS to use in the kinetic assay was determined using the small chymotrypsin-like activity reporter, Suc-LLVY-AMC (SEQ ID NO: 4). […] In triplicate, the following final concentrations of SDS were analyzed for the effect each has on the activity of the 20S proteasome: 4000 μM, 2000 μM, 1000 μM, 500 μM, 250 μM, 125 μM, and 0 μM, the basal activity of the 20S proteasome. […] Immediately prior to reading the plate with the Synergy 4 plate reader, 5 μL purified 20S proteasome (90 nM in Tris-HCl) was added to the wells at a final concentration of 9 nM per well.
The Synergy 4 Plate Reader was set to heat the plate at 37° C. and read fluorescence every 2 min over a 1 hr period. […] The resulting data in relative fluorescence units (RFU) was analyzed using GraphPad Prism and was plotted against time in minutes. […] Based on the resulting curve and the hyperbolic curve obtained using 1000 μM SDS (FIG. 11b), it was determined that 500 μM SDS was the appropriate concentration to use to test the effect stimulating the 20S proteasome has on the hydrolysis of the FRET reporters.
Stimulation of the 20S proteasome with SDS was determined using both the coumarin and FRET reporters for the chymotrypsin-like and trypsin-like activities of the 20S CP. […]

[5] = target: T4, trypsin-like activity of the 20S CP; assay: Kinetic assay, T-L FRET reporter hydrolysis by purified 20S CP; assay type: biochemical; conditions: 500 μM SDS
Protocol: as §1
as §2, with “For the coumarin reporter, the excitation and emission wavelengths were set to 380 nm and 460 nm, respectively.” left out
as §4, with “wells. The assay was performed using the Synergy 4 plate reader as described for the general screening kinetic assay procedure.” for “wells.”
To each well was added 40 μL 20 μM T-L FRET reporter (in Tris-HCl, 50 mM, pH 7.7). […] Immediately prior to running the assay on the Synergy 4 Plate Reader, 5 μL purified 20S proteasome (90 nM in Tris-HCl) was added to the control and test wells.

Q: Which “increase in the rate of hydrolysis (CT-L FRET reporter)” value (shortened to “increase … (CT-L FRET reporter)”) ([1]; 12.5 μM compound (lowest concentration tested)) does the source give for CCCCC/C=C\C/C=C\C/C=C\C/C=C\CCCC(=O)Nc1ccc(O)cc1 [AM-404] here?
A: 4 fold

Q: What about the “increase … (CT-L FRET reporter)” value ([1]; 25.0 μM compound) of the same molecule?
A: 5 fold

Q: What about the “increase … (CT-L FRET reporter)” value ([1]; 50.0 μM compound) of the same molecule?
A: 7 fold

Q: What about the “Mean Signal (Rate)” value ([1]; CT-L FRET reporter, 20S CP, basal 5.300) of the same molecule?
A: 40.46

Q: And the “dose dependence of 20S CP stimulation” value ([1]; CT-L FRET reporter, dose response curve)?
A: dose-dependent

Q: What about the EC50 (20S CP) of the same molecule?
A: ~32 µM

Q: For CN(C)C(=O)C(CCN1CCC(O)(c2ccc(Cl)cc2)CC1)(c1ccccc1)c1ccccc1 [Loperamide HCl], which “stimulation of the 26S proteasome” value (26S proteasome) is on record?
A: stimulate the 26S proteasome

Q: What does the source list for “20S core particle (20S CP) of the proteasome”?
A: Mean Signal (Rate), Basal (background) activity of the 20S CP [2]: 5.3; rate of hydrolysis (average basal level, no stimulator) [2]: 2.9 ΔRFU/min; rate of hydrolysis (average basal level, no stimulator) (Suc-LLVY-AMC): 60 ΔRFU/min

Q: Which “validation of primary hits in triplicate” value ([1]; 25 μM, newly purchased compound, CT-L FRET reporter) does the source give for O=C(O)c1cc(O)c2c(c1)[C@@H]([C@H]1c3cc(C(=O)O)cc(O)c3C(=O)c3c(O[C@@H]4O[C@H](CO)[C@@H](O)[C@H](O)[C@H]4O)cccc31)c1cccc(O[C@@H]3O[C@H](CO)[C@@H](O)[C@H](O)[C@H]3O)c1C2=O [Compound 4, Sennoside B] here?
A: did not perform as it had in the initial screen

Q: With CC(C)C[C@H](NC(=O)[C@H](Cc1ccccc1)NC(=O)c1cnccn1)B(O)O [bortezomib] as the molecule, how does the “decrease in the rate of hydrolysis of the CT-L FRET reporter” value ([1]; 2 μM bortezomib) read?
A: 40%

Q: Which “increase in the rate of hydrolysis of Bz-VGR-AMC compared to basal activity” value [3] does the source give for CCCCCCCCCCCCOS(=O)(=O)[O-].[Na+] [SDS, sodium dodecyl sulfate] here?
A: 2 fold

Q: And the “increase in the rate, CT-L FRET reporter” value ([1]; 500 μM SDS vs basal)?
A: 8.3 fold

Q: And the “average rate of hydrolysis, CT-L FRET reporter” value ([1]; 500 μM SDS, basal 2.9 ΔRFU/min)?
A: 24 ΔRFU/min

Q: What about the “increase in the rate, Suc-LLVY-AMC reporter” value ([4]; 500 μM SDS vs basal) of the same molecule?
A: 2.4 fold

Q: And the “average rate of hydrolysis, Suc-LLVY-AMC reporter” value ([4]; 500 μM SDS, basal 60 ΔRFU/min)?
A: 145 ΔRFU/min

Q: What about the “increase in the rate of hydrolysis of T-L FRET reporter compared to basal activity” value [5] of the same molecule?
A: 5 fold
